# How the values were obtained:
# endometrium = assay: Endometrial biopsies of women in the CDB-4124 treatment groups; format: in vivo, human
# Description: Endometrial biopsies were taken from 27 women exposed to 12.5 mg, 25 mg or 50 mg CDB-4124 for six months and 31 women with uterine fibroids exposed to 12.5 or 25 mg CDB-4124 for three months. Specimens were evaluated in a treatment blinded fashion utilizing the WHO diagnostic schema (Silverberg et al., tumors of the uterine corpus: epithelial tumors and related lesions. Tavassoli F A, Stratton M R, reditors. WHO Classification of Tumors: Pathology and Genetics of Tumors of the Breast and Female Genital Organs. Lyon, France: IARC Press, 2003: 221-232). A consensus primary end point result was determined for each specimen by majority (two or more of three pathologists agree), or in the event of all pathologists disagreeing the “worst” diagnosis of the three was assigned. Additional findings were recorded using a structured data collection instrument. All raw data was provided to the reviewing pathologists, who undertook an independent analysis that was the basis for their conclusions.
# [1] = target: T1, glucocorticoid receptor (rbGR) (Oryctolagus cuniculus, UniProt P59667); assay: Glucocorticoid receptor binding / anti-glucocorticoid receptor activity; set-up: species or system rabbit
# T1 construct: cytosol containing PR or GR were prepared in TEGMD buffer; from tissue; host or cells: thymus of estradiol-primed immature rabbits (cytosol)
# T1 sequence (P59667 1-772): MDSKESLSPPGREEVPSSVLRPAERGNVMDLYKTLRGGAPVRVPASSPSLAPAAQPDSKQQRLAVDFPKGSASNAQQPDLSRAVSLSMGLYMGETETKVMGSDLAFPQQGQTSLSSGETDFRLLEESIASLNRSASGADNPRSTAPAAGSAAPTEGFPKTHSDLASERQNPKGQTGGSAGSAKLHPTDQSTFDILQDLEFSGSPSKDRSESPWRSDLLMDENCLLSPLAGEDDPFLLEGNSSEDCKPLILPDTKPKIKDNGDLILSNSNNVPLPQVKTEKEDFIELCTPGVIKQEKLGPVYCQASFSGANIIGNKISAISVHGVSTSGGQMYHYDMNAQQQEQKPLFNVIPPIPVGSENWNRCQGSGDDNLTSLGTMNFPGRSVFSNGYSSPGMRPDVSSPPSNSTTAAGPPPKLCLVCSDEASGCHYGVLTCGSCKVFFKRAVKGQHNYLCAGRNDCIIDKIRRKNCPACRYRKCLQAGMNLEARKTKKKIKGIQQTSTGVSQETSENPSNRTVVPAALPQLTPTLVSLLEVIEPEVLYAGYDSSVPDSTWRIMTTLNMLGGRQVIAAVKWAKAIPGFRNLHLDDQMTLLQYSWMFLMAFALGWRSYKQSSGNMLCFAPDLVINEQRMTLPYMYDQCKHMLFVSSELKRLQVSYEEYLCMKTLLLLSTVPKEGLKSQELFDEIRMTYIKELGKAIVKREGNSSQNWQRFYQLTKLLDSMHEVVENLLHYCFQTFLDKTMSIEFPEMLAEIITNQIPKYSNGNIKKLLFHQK
# Description: Certain antiprogestins were tested in receptor-binding assays for their ability to bind rabbit progesterone receptor (rbPR) and glucocorticoid receptor (rbGR). […] For PR binding, the cytosol was incubated with 6 nM 1,2-[^3H]progesterone (50.0 Ci/mmole) and competitors were added at concentrations from 2 to 100 nM. For binding to GR, the cytosol was incubated with 6 nM 6,7-[^3H]-dexamethasone (40 Ci/mmol) and test compounds were added at concentrations from 20 to 100 nM. After overnight incubation at 4 C, bound and unbound [^3H] steroids were separated by addition of dextran-coated charcoal and centrifugation at 2100×g for 15 min at 4 C. Supernatants containing the [3H]-steroid receptor complexes were decanted into vials containing 4 ml Optifluor (Packard Instrument Co.), vortexed, equilibrated in a liquid scintillation counter for 30 minutes and then counted for 2 minutes. […] The standards for the PR and GR assays were unlabeled progesterone and dexamethasone, respectively.
smiles,measurement,setting,value
"COCC(=O)[C@@]1(OC(C)=O)CC[C@H]2[C@@H]3CCC4=CC(=O)CCC4=C3[C@@H](c3ccc(N(C)C)cc3)C[C@@]21C [CDB-4124, 21-methoxy-17α-acetoxy-11β-(4 N,N-dimethylaminophenyl)-19-norpregna-4,9-diene-3,20-dione]",consensus primary diagnosis of endometrial biopsy (WHO schema),"endometrium; 12.5, 25 or 50 mg for six months, 12.5 or 25 mg for three months",benign endometrium
same,blood vessel wall thickening and latticed capillary patterns,endometrium; endometrial biopsies,did not induce
same,most prominent secondary finding within the benign category,"endometrium; endometrial biopsies, more prominent at lowest doses",cystic dilation of glands
same,endometrial proliferation,"endometrium; every concentration tested (12.5, 25, 50 mg)",suppressed
same,anti-glucocorticoid receptor activity / glucocorticoid receptor binding,[1],minimal
